Measurements taken from patent US20070128217A1 (priority 2003, published 2007).

How the values were obtained:
[1] = system: rabbit serum obtained by immunizing a rabbit with the SARS-CoV strain Frankfurt 1; type: binding; design: Binding of a rabbit serum to linear peptides / Binding of a rabbit serum to looped peptides / Rabbit serum linear peptides / Rabbit serum looped peptides / Binding of a rabbit serum to linear peptides of protein N of SARS-CoV Urbani (Rabbit serum linear peptides) / Binding of a rabbit serum to looped/cyclic peptides of protein N of SARS-CoV Urbani (Rabbit serum looped peptides): unit not given here
[2] = system: control sera (pooled serum of ten healthy LUMC hospital workers; commercial negative donor pooled serum from the Dutch bloodbank); type: binding, human; design: Binding of Control serum LUMC to linear peptides / Binding of Control serum Blood-bank to linear peptides / Binding of Control serum LUMC to looped peptides / Binding of Control Serum Blood-Bank to Looped peptides / Binding of Control serum LUMC to linear peptides of the protein M of SARS-CoV Urbani / Binding of Control serum Blood-bank to linear peptides of the protein M of SARS-CoV Urbani / Binding of Control serum LUMC to looped peptides of the protein M of SARS-CoV Urbani / Binding of Control Serum Blood-Bank to Looped peptides of the protein M of SARS-CoV Urbani: unit not given here
[3] = system: antibodies in sera from SARS patients (sera 1a, 1b, 2, 6, 37, 62, London, SARS-yellow, SARS-green); type: binding, human; design: Binding of serum 6 to linear peptides of protein X1 of SARS-CoV Urbani / Binding of serum 37 to linear peptides of protein X1 of SARS-CoV Urbani / Binding of serum 6 to looped/cyclic peptide (PEPSCAN-ELISA) / Binding of serum 37 to looped/cyclic peptide (PEPSCAN-ELISA) / Binding of serum 37 to looped/cyclic peptides of protein X1 of SARS-CoV Urbani / Binding of serum 6 to linear peptides of protein X2 / Binding of serum 37 to linear peptides of protein X2 / Binding of serum 37 to looped/cyclic peptides of protein X2 of SARS-CoV Urbani / Binding of serum 6 to linear peptides of protein M of SARS-CoV Urbani / Binding of serum 37 to linear peptides of protein M of SARS-CoV Urbani / Binding of serum 6 to looped/cyclic peptides of protein M of SARS-CoV Urbani / Binding of serum 37 to looped/cyclic peptides of protein M of SARS-CoV Urbani / Binding of serum 6 to linear peptides of protein X3 of SARS-CoV Urbani / Binding of serum 37 to linear peptides of protein X3 of SARS-CoV Urbani / Binding of serum 37 to looped/cyclic peptides of protein X3 of SARS-CoV Urbani / Binding of serum 6 to linear peptides of protein X4 of SARS-CoV Urbani / Binding of serum 37 to linear peptides of protein X4 of SARS-CoV Urbani / Binding of serum 37 to looped/cyclic peptides of protein X4 of SARS-CoV Urbani / Binding of serum 6 to linear peptides of protein X5 of SARS-CoV Urbani / Binding of serum 37 to linear peptides of protein X5 of SARS-CoV Urbani / Binding of serum 37 to looped/cyclic peptides of protein X5 of SARS-CoV Urbani / Binding of serum 6 to linear peptides of protein N of SARS-CoV Urbani / Binding of serum 37 to linear peptides of protein N of SARS-CoV Urbani / Binding of serum 6 to linear peptide (PEPSCAN-ELISA) / Binding of serum 1a to looped/cyclic peptides of protein N of SARS-CoV Urbani / Binding of serum 1b to looped/cyclic peptides of protein N of SARS-CoV Urbani / Binding of serum 2 to looped/cyclic peptides of protein N of SARS-CoV Urbani / Binding of serum 6 to looped/cyclic peptides of protein N of SARS-CoV Urbani / Binding of serum 37 to looped/cyclic peptides of protein N of SARS-CoV Urbani / Binding of serum 62 to looped/cyclic peptides of protein N of SARS-CoV Urbani / Binding of serum London to looped/cyclic peptides of protein N of SARS-CoV Urbani / Binding of serum SARS-green to looped/cyclic peptides of protein N of SARS-CoV Urbani: unit not given here

IKDLPKEITVATSRT
Rabbit serum linear peptides [1]: 0.3 | Rabbit serum looped peptides [1]: 0.2 | Binding of Control Serum Blood-Bank to Looped peptides of the protein M of SARS-CoV Urbani [2]: 0.5 | Binding of Control serum Blood-bank to linear peptides of the protein M of SARS-CoV Urbani [2]: 0.6 | Binding of Control serum LUMC to linear peptides of the protein M of SARS-CoV Urbani [2]: 0.4 | Binding of Control serum LUMC to looped peptides of the protein M of SARS-CoV Urbani [2]: 0.7 | Binding of serum 1a to linear peptides of protein M of SARS-CoV Urbani [3]: 0.7 | Binding of serum 1a to looped/cyclic peptides of protein M of SARS-CoV Urbani [3]: 0.4 | Binding of serum 1b to linear peptides of protein M of SARS-CoV Urbani [3]: 0.5 | Binding of serum 1b to looped/cyclic peptides of protein M of SARS-CoV Urbani [3]: 0.4 | Binding of serum 2 to linear peptides of protein M of SARS-CoV Urbani [3]: 0.6 | Binding of serum 2 to looped/cyclic peptides of protein M of SARS-CoV Urbani [3]: 0.5 | Binding of serum 6 to linear peptides of protein M of SARS-CoV Urbani [3]: 0.3 | Binding of serum 6 to looped/cyclic peptides of protein M of SARS-CoV Urbani [3]: 0.4 | Binding of serum 37 to linear peptides of protein M of SARS-CoV Urbani [3]: 0.8 | Binding of serum 37 to looped/cyclic peptides of protein M of SARS-CoV Urbani [3]: 0.6 | Binding of serum 62 to linear peptides of protein M of SARS-CoV Urbani [3]: 0.8 | Binding of serum 62 to looped/cyclic peptides of protein M of SARS-CoV Urbani [3]: 0.6 | Binding of serum London to linear peptides of protein M of SARS-CoV Urbani [3]: 0.3 | Binding of serum London to looped/cyclic peptides of protein M of SARS-CoV Urbani [3]: 0.2 | Binding of serum SARS-green to linear peptides of protein M of SARS-CoV Urbani [3]: 0.2 | Binding of serum SARS-green to looped/cyclic peptides of protein M of SARS-CoV Urbani [3]: 0.3 | Binding of serum SARS-yellow to linear peptides of protein M of SARS-CoV Urbani [3]: 0.0 | Binding of serum SARS-yellow to looped/cyclic peptides of protein M of SARS-CoV Urbani [3]: 0.9

RIIMRCWLCWKCKSK
Binding of a rabbit serum to linear peptides [1]: 0.1 | Binding of a rabbit serum to looped peptides [1]: 0.3 | Binding of Control Serum Blood-Bank to Looped peptides [2]: 0.3 | Binding of Control serum Blood-bank to linear peptides [2]: 0.3 | Binding of Control serum LUMC to linear peptides [2]: 0.2 | Binding of Control serum LUMC to looped peptides [2]: 0.3 | Binding of serum 1a to looped/cyclic peptide (PEPSCAN-ELISA) [3]: 0.2 | Binding of serum 1b to looped/cyclic peptide (PEPSCAN-ELISA) [3]: 0.2 | Binding of serum 2 to looped/cyclic peptide (PEPSCAN-ELISA) [3]: 0.1 | Binding of serum 6 to looped/cyclic peptide (PEPSCAN-ELISA) [3]: 0.1 | Binding of serum 37 to looped/cyclic peptide (PEPSCAN-ELISA) [3]: 0.2 | Binding of serum 62 to looped/cyclic peptide (PEPSCAN-ELISA) [3]: 0.3 | Binding of serum London to looped/cyclic peptide (PEPSCAN-ELISA) [3]: 0.1 | Binding of serum SARS-green to looped/cyclic peptide (PEPSCAN-ELISA) [3]: 0.1 | Binding of serum SARS-yellow to looped/cyclic peptide (PEPSCAN-ELISA) [3]: 0.1 | Recognition of the peptide by sera of SARS-CoV infected individuals, and form (linear, looped/cyclic) in which it is recognized [3]: recognized in linear form

LLACLCKHKKVSTNL
Binding of a rabbit serum to linear peptides [1]: 0.4 | Binding of a rabbit serum to looped peptides [1]: 0.4 | Binding of Control Serum Blood-Bank to Looped peptides [2]: 0.5 | Binding of Control serum Blood-bank to linear peptides [2]: 0.8 | Binding of Control serum LUMC to linear peptides [2]: 0.8 | Binding of Control serum LUMC to looped peptides [2]: 0.7 | Binding of serum 1a to looped/cyclic peptides of protein X2 of SARS-CoV Urbani [3]: 0.4 | Binding of serum 1b to looped/cyclic peptides of protein X2 of SARS-CoV Urbani [3]: 0.4 | Binding of serum 2 to looped/cyclic peptides of protein X2 of SARS-CoV Urbani [3]: 0.4 | Binding of serum 6 to looped/cyclic peptides of protein X2 of SARS-CoV Urbani [3]: 0.4 | Binding of serum 37 to looped/cyclic peptides of protein X2 of SARS-CoV Urbani [3]: 0.5 | Binding of serum 62 to looped/cyclic peptides of protein X2 of SARS-CoV Urbani [3]: 0.7 | Binding of serum London to looped/cyclic peptides of protein X2 of SARS-CoV Urbani [3]: 0.2 | Binding of serum SARS-green to looped/cyclic peptides of protein X2 of SARS-CoV Urbani [3]: 0.3 | Binding of serum SARS-yellow to looped/cyclic peptides of protein X2 of SARS-CoV Urbani [3]: 0.4 | Recognition of the peptide by sera of SARS-CoV infected individuals, and form (linear, looped/cyclic) in which it is recognized [3]: recognized in linear form
